Assay results reported in US20250009817A1, “IMMUNOMODULATING COMPOSITION CONTAINING GASSERI” (THE CATHOLIC UNIVERSITY OF KOREA INDUSTRY-ACADEMIC …, priority 2023, published 2025).

Experiments:
[1] = test system: Breg and B10 cells, and CD19-positive and IL-10-positive cells; test: Breg, B10 and CD19-positive IL-10-positive cells in LPS-stimulated hPBMC, flow cytometry; assay type: cell-based, human; conditions: LPS 100 ng/ml, 24 hours
Description: The immune cell regulatory effect of the combination of FK506 and the microbiomes of the present invention in hPBMC according to LPS was confirmed. Specifically, PBMCs isolated from human peripheral […] were treated with LPS at a concentration of 100 ng/ml to activate immune cells. Thereafter, FK506 alone; or a combination of FK506 and L. gasseri; L. gasseri and L. acidophilus; microbiomes and zinc; or microbiomes, zinc, vitamin B9, and vitamin B12 was treated and cultured for 24 hours. After completion of culture, cells in each group were obtained, and the expression of immune B cells Breg and B10 cells, and CD19-positive and IL-10-positive cells was confirmed using flow cytometry.

[2] = test system: acute graft-versus-host disease (aGVHD); test: Disease activity, body weight and probability of survival in acute graft-versus-host disease animal model; assay type: in vivo, mouse; conditions: aGVHD mice, FK506 5 mg/kg, microbiome 400 mg/kg, oral once daily 4 weeks
Description: Specifically, in order to fabricate an aGVHD model, a responder mouse Balb/c (H-2k/d) was subjected to total body irradiation (TBI) of 690 cGy, bone marrow stem cells and splenocytes were isolated from the femur and tibia of a donor mouse C57BL/6 (H-2k/b), and then 5×10^6 bone marrow (BM) stem cells and 5×10^6 splenocytes were transplanted into the responder mouse Balb/c (H-2k/d). Thereafter, after the occurrence of aGVHD, 5 mg/kg of FK506 and 400 mg/kg each of Lactobacillus rhamnosus (LR) or Lactobacillus paracasei (LP) were administered orally once daily for 4 weeks. Disease activity, body weight, and probability of survival of mice in each group were measured once a week to confirm whether the disease activity was suppressed (FIG. 5). As control groups, a syngenic (syn) group transplanted with syngenic cells; a vehicle group, in which aGVHD was induced and saline was injected; and groups administered with FK506, Lactobacillus rhamnosus, and Lactobacillus paracasei alone were used.

IL-17, IL-10, and IFN-γ = test: IL-17, IL-10 and IFN-γ in hPBMC under T cell stimulation conditions (anti-CD3), ELISA; assay type: cell-based, human; conditions: anti-CD3 2 μg/ml, 24 hours, FK506 1 nM, microbiomes 10 μg/ml each
Description: (§1) It was confirmed whether the combination of FK506 and the microbiomes of the present inention regulated IL-17 and IL-10 in human peripheral blood mononuclear cells (hPBMCs) under T cell stimulation conditions. Specifically, PBMCs isolated from human peripheral blood were treated with anti-CD3 at a concentration of 2 μg/ml to activate T cells. Thereafter, the PBMCs were treated with FK506 alone (1 nM) and a combination of FK506 (1 nM) and L. gasseri (10 μg/ml); L. gasseri (10 μg/ml) and L. acidophilus (10 μg/ml); two microbiomes (each 10 μg/ml) and zinc (50 μM); or two microbiomes (each 10 μg/ml), zinc (50 μM), vitamin B9, and vitamin B12 (B9+B12 20 μM) and cultured for 24 hours. After completion of the culture, the cell culture medium was obtained, and the amounts of IL-17 and IL-10 in the culture medium were measured by ELISA.

Treg = Treg expression in hPBMC under T cell stimulation conditions, flow cytometry; assay type: cell-based, human; conditions: anti-CD3 2 μg/ml, 24 hours, FK506 1 nM, microbiomes 10 μg/ml each, zinc 50 μM, B9+B12 20 μM
Description: as §1
It was confirmed whether the combination of FK506 and the microbiomes of the present invention regulated the expression of Treg reduced by treatment with the immunosuppressant. Specifically, cells in each group of Example 8-1 were obtained, and expression of Treg was confirmed by flow cytometry.

IL-17 and IL-10 = IL-17 and IL-10 in culture medium under allo response conditions, ELISA; assay type: cell-based, human; conditions: hPBMCs, 72 hours, FK506 1 nM, microbiomes 10 μg/ml each, vs Vehicle group
Description: Specifically, the proliferation of allo response T cells was confirmed for FK506 alone (1 nM) and a combination of FK506 (1 nM) and L. gasseri (10 μg/ml); L. gasseri (10 μg/ml) and L. acidophilus (10 μg/ml); two microbiomes (each 10 μg/ml) and zinc (50 μM); or two microbiomes (each 10 μg/ml), zinc (50 μM), vitamin B9, and vitamin B12 (B9+B12 20 μM). Specifically, different human peripheral blood mononuclear cells (hPBMCs) were inoculated at a ratio of 1:1 (each concentration of 1×10^5 cells) on a 96 well plate coated with a concentration of anti CD3 0.5 μg/ml, treated with the combination in hPBMCs in which allo conditions were induced, and then cultured for 72 hours. Thereafter, 10 μl of CCK8 was treated to each well and reacted for 4 hours, and then the cell proliferation response was measured by absorbance at 450 nm. As a control group, a Vehicle group in which the active ingredient was replaced with a solvent was used.
It was confirmed whether the combination of FK506 and the microbiome of the present invention regulated the expression of inflammation-related factors under allo response conditions. Specifically, a culture medium of each cell cultured in Example 7-1 was obtained, and the amounts of IL-17 as an inflammatory factor and IL-10 as an inflammation regulator in the culture medium were analyzed by ELISA.

CD4+T cells = test: Alloresponse (T cell proliferation) in allogeneic cell model, 3H thymidine incorporation; assay type: cell-based, mouse; conditions: allogeneic co-culture; FK506 0.3 mg/ml; microbiome 100 μg/ml in combination; FIG. 1
Description: To confirm an effect of the combination of FK506 and a microbiome of the present invention on transplantation rejection, an allogeneic cell model was used. Specifically, in a 96 well plate, 2×10^5 CD4+T cells from a normal responder (Bclb/c) per well were mixed and co-cultured with 2×10^5 splenocytes from which T cells derived from an irradiated responder (syngenic) or donor (C57BL/6, stimulator, allogeneic) were removed. During co-culture, an allogeneic model was treated with five types of Lactobacillus bacteria, Lactobacillus acidophilus (LA), L. reuteri (LRe), L. rhamnosus (LRh), L. paracasei (LPC) or L. casei (LC) alone at 1, 10, and 100 μg/ml, or administered in combination with 0.3 mg/ml of FK506. As a control group, a syngenic transplantation group (Syn group) and an allogeneic transplantation group (Allo group) were used. Thereafter, in order to confirm alloresponses in mice of each group, T cell proliferation responses (alloresponses) were confirmed in the cultured cells using a 3H thymidine incorporation method.

SMILES: C=CC[C@@H]1/C=C(\C)C[C@H](C)C[C@H](OC)[C@H]2O[C@@](O)(C(=O)C(=O)N3CCCC[C@H]3C(=O)O[C@H](/C(C)=C/[C@@H]3CC[C@@H](O)[C@H](OC)C3)[C@H](C)[C@@H](O)CC1=O)[C@H](C)C[C@@H]2OC.O [FK506, Tacrolimus]
- expression of B10 [1]: decreased
- expression of Breg ([1]; vs Vehicle group): significantly decreased
- probability of survival ([2]; at the end of the experiment): 60%
- body weight ([2]; compared to the vehicle group): increased
- disease activity ([2]; compared to the vehicle group): decreased
- amount of IFN-γ (IL-17, IL-10, and IFN-γ; vs Vehicle group): significantly decreased
- amount of IL-10 (IL-17, IL-10, and IFN-γ; zinc 50 μM, B9+B12 20 μM): not expressed
- expression of Treg (Treg): significantly decreased
- expression of IL-10 in the culture medium (IL-17 and IL-10): significantly decreased
- T cell proliferation (alloresponse) (CD4+T cells): suppressed
